Holding throughout (assay type): in vivo
The subject of assay [1] is redroot pigweed. The experiment in a line: Upland foliar application test by mixed formulations (Test 7). As to conditions: Amaranthus retroflexus, 720 h, read-out: Herbicidal effects (%) Redrood pigweed Ea. The procedure: (§1) Resin-made 1/10,000-are pots were filled with the soil of an upland field. Redroot pigweed, morningglories, johnsongrass, barnyardgrass and green foxtail were separately seeded and were allowed to germinate in a green house. When each plant grew to the stage of 2-3 leaves, an emulsion formulated from predetermined amounts of two test compounds of different kinds in a similar manner to the method described in Formulation Example 16 was diluted with water to a predetermined dilution rate and then sprayed at an application rate equal to 5 l per are onto the foliage of each plant by means of a pressure-operated ULV (ultra low volume) sprayer. Influence to the weeds were observed on the 30th day after the spray of the herbicides. In the table, each Ea means an acutally measured value of herbicidal activities when two kinds of herbicides were mixed. Each Ec is an expected value for herbicidal activities, calculated in accordance with the below-described calculation formula proposed by Colby et al. [Colby, S. R., Weed 15, 20-22 (1967)]. Ea>Ec indicates the existence of synergistic action while […] action. [formula] Ec: Growth inhibition rate (%) expected when Ingredient I and Ingredient II are mixed.
(§2) Ex: Growth inhibition rate (%) when treated with Ingredient I alone.
(§3) Ey: Growth inhibition rate (%) when treated with Ingredient II alone.

Assay [2] deals with morningglories. Described as above. The following applies: Ipomoea, 720 h, read-out: Herbicidal effects (%) Morningglory Ea. The procedure:
as §1, §2, §3

Assay [3] concerns green foxtail. The assay is described as above. The following applies: Setaria viridis, 720 h, read-out: Herbicidal effects (%) Green foxtail Ea. The procedure:
as §1, §2, §3

The test system of assay [4] is barnyardgrass. The assay is described as above. The following applies: Echinochloa crus-galli, 720 h, read-out: Herbicidal effects (%) Barnyardgrass Ea. The procedure: as §1, §2, §3
Assay [5] has as its system redroot pigweed. Description: Upland foliar application test by mixed formulations, concentration gradient (Test 8). As to conditions: Amaranthus retroflexus, 960 h, read-out: Herbicidal effects Redrood pigweed Ea. As to the method: (§4) Resin-made 1/10,000-are pots were filled with the soil of an upland field. Redroot pigweed and johnsongrass were separately seeded and were allowed to germinate in a green house. When each plant grew to the stage of 2-3 leaves, emulsions formulated with concentration gradient from predetermined amounts of two test compounds of different kinds in a similar manner to the method described in Formulation Example 16 was diluted with water to a predetermined dilution rate and then sprayed at an application rate equal to 5 l per are onto the foliage of each plant by means of a pressure-operated ULV (ultra low volume) sprayer. Influence to the weeds were observed on the 40th day after the spray of the herbicides. The results are shown in Table 9, In the table, Ea have the same meanings as in Test 7, and Ea>Ec indicates the existence of synergistic action while Ea<Ec indicates the existence of antagonistic action.

Assay [6] relates to johnsongrass. The description is as above. As to conditions: Sorghum halepense, 960 h, read-out: Herbicidal effects Johnsongrass Ea. The procedure: as §4
Assay [7] deals with johnsongrass. The experiment in a line: Upland foliar application test by mixed formulations (Test 7). As to conditions: Sorghum halepense, 720 h, read-out: Herbicidal effects (%) Johnsongrass Ea, applied alone, 0.2 kg/ha, foliar, 30th day. As to the method: as §1, §2, §3
Where [8] appears, read: applied alone, 0.3 kg/ha, 30th day.

The structures appear in SMILES notation.

For the compound `O=C(O)c1cc(Oc2ccc(C(F)(F)F)cc2Cl)ccc1[N+](=O)[O-]` [blazer, reference compound], the pest or weed control at 300 g/ha in assay [1] (setting [8]) was 100%; in assay [2] (setting [8]), 100%; in assay [3] (setting [8]), 40%; in assay [4] (setting [8]), 100%.

As to `CCC/C(=N\OCC)C1=C(O)CC(CC(C)SCC)CC1=O` (stereo not shown) [sethoxydim, reference compound], the pest or weed control at 100 g/ha in assay [5] came out at 0%; in assay [6] it was 70%. The pest or weed control at 200 g/ha in assay [5] was found to be 0%; in assay [6], 85%; in assay [1], 0%; in assay [7] it was 95%; in assay [2], 0%; in assay [3], 100%. The pest or weed control at 200 g/ha in assay [4] was 0%.
